Results: patent US4957911A, “Benzazecine derivatives for cognitive and memory functions” (Hoffmann-La Roche Inc., priority 1986, dated 1990)

What was measured:
[1] = Acute toxicity, single oral administration to mice (LD50); settings: mouse, in vivo
Source text: Moreover, the Table contains data for the acute toxicity (LD50 in mg/kg in the case of single oral administration to mice).

rats = experiment: Passive avoidance in Skinner box: reversal of scopolamine-induced blocking of short-time memory; type: in vivo, rat; settings: scopolamine 0.3 mg/kg i.p. and distilled water p.o.
Source text: The test apparatus is a "Skinner box" with an electrifiable grid floor (30×40 cm) and a grey plastic platform (15×15×0.8 cm) in the front right corner. Untrained male rats (100-120 g) are placed individually on the platform. As soon as they climb down on to the grid floor they receive a mild electric foot-shock (0.8 mA). The normal reaction of untrained rats is to climb back on to the platform. The foot-shock procedure must be repeated three to five times for each animal, after which the rats have acquired a "passive avoidance response", that is, they no longer attempt to descend from the platform to the grid floor.
Immediately thereafter three groups, each comprising 30 animals, are set up. The first group receives an injection (i.p.) of 0.3 mg/kg of scopolamine as well as distilled water (2 ml/kg p.o.). The second group receives an injection (i.p.) of 0.3 mg/kg of scopolamine and an oral dosage of the test substance. The third group receives only distilled water (p.o.).
Two hours later, each rat is placed once on the platform in the "Skinner box". […] The statistical significance of the difference between the results obtained in the first and in the second groups is determined by means of the Chi-Square test.
70-75% of the animals treated only with distilled water (p.o.) still remember 2-4 hours after learning the "passive avoidance response" that they should remain on the platform. […]

Compound	LD50 [1] [mg/kg]	animals with retrograde effect on the short-time memory (rats)	duration of retrograde effect on the short-time memory (rats) [h]
CC(=O)N1CCCC(=O)c2c(Cl)cc(Cl)cc2CCC1=O [I Cl H Cl H COCH3, 4-acetyl-9,11-dichloro-1,2,4,5,6,7-hexahydro-4-benzazecine-3,8-dione]	> 5000	–	–
CC(=O)N1CCCC(=O)c2c(Cl)cccc2CCC1=O [I Cl H H H COCH3, 4-acetyl-9-chloro-1,2,4,5,6,7-hexahydro-4-benzazecine-3,8-dione]	> 5000	–	–
CC(=O)N1CCCC(=O)c2ccc(Cl)cc2CCC1=O [I H H Cl H COCH3, 4-acetyl-11-chloro-1,2,4,5,6,7-hexahydro-4-benzazecine-3,8-dione]	> 5000	–	–
CC(=O)N1CCCC(=O)c2ccc(F)cc2CCC1=O [I H H F H COCH3, 4-acetyl-11-fluoro-1,2,4,5,6,7-hexahydro-4-benzazecine-3,8-dione]	> 5000	–	–
CC(=O)N1CCCC2=C1CCc1cc(Cl)ccc12 [II H H Cl H COCH3, 4-acetyl-8-chloro-1,2,3,4,5,6-hexahydrobenzo[f]quinoline]	2500 to 5000	–	–
CN1[C@@H]2C[C@@H](OC(=O)[C@H](CO)c3ccccc3)C[C@H]1[C@@H]1O[C@@H]12 [scopolamine]	–	85-92%	3 to 4
